Source: PubChem BioAssay (NCI)
Where “and” joins values, the source holds several entries; their conditions need not be identical. Identical values can stand only once.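 Five concentrations, 48 hours, 96-well plates. GI50 is the concentration that inhibits growth by half. TGI is the concentration that stops growth completely.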

How the values were obtained:
Test in all cases: NCI tumour cell line growth inhibition, 48 h
MOLT-4 leukemia = test system: MOLT-4 leukemia
HL-60(TB) leukemia = test system: HL-60(TB) leukemia
HOP-62 NSCLC = test system: HOP-62 NSCLC
SK-MEL-2 melanoma = test system: SK-MEL-2 melanoma
BT-549 breast = test system: BT-549 breast
HCT-15 colon = test system: HCT-15 colon
RPMI-8226 leukemia = test system: RPMI-8226 leukemia
HCC-2998 colon = test system: HCC-2998 colon
IGROV1 ovarian = test system: IGROV1 ovarian
SF-539 CNS = test system: SF-539 CNS

Structure (SMILES) | GI50 (MOLT-4 leukemia) | TGI (MOLT-4 leukemia) | GI50 (HL-60(TB) leukemia) | TGI (HL-60(TB) leukemia) | GI50 (HOP-62 NSCLC) | TGI (HOP-62 NSCLC) | GI50 (SK-MEL-2 melanoma) | TGI (SK-MEL-2 melanoma) | GI50 (BT-549 breast) | TGI (BT-549 breast) | GI50 (HCT-15 colon) | TGI (HCT-15 colon) | GI50 (RPMI-8226 leukemia) | TGI (RPMI-8226 leukemia) | GI50 (HCC-2998 colon) | TGI (HCC-2998 colon) | GI50 (IGROV1 ovarian) | TGI (IGROV1 ovarian) | GI50 (SF-539 CNS) | TGI (SF-539 CNS)
CCC(=C(c1ccc(OCCCN(C)C)cc1)c1ccc(OCCCN(C)C)cc1)c1ccc(Cl)cc1 | 0.379 µM | 0.948 µM | 0.372 µM | 0.941 µM | 2.31 µM | 5.1 µM | 2.63 µM | 5.37 µM | 2.54 µM | 4.94 µM | 0.365 µM | 0.864 µM | 0.366 µM | 0.871 µM | 0.51 µM | 1.54 µM | 0.429 µM | 1.15 µM | 0.301 µM | 0.604 µM
NC(=O)c1cccc(Nc2nccc(Nc3cccc(F)c3)n2)c1 | 13.1 µM | > 25 µM | 7.52 µM | 20.5 µM | 8.24 µM | > 22.5 µM | 7.37 µM | 24.4 µM | 10.3 µM | > 25 µM | 7.69 µM | > 25 µM | 11.4 µM | > 25 µM | 18.5 µM | > 25 µM | 6.21 µM | > 21.1 µM | 11.3 µM | > 25 µM
C=C1CC2(OC1=O)C(=O)N(CCCN1C(=O)C3(CC(=C)C(=O)O3)c3ccccc31)c1ccccc12 (stereo not given) | 0.419 µM | 1.93 µM | 0.831 µM | 2.85 µM | 7.34 µM | 21.8 µM | 10.4 µM | 32.3 µM | 2.69 µM | 9.65 µM | 0.956 µM | 2.55 µM | 0.579 µM | 2.78 µM | 2.14 µM | 4.53 µM | 1.32 µM | 2.68 µM | 1.76 µM | 3.43 µM
OB1OCc2cc(/C=C/c3cccc(C(F)(F)F)c3)ccc21 | 0.454 µM | 12.9 µM | 0.298 µM | 5.38 µM | 0.483 µM | 17.4 µM | 46.1 µM | > 100 µM | 2.26 µM | > 100 µM | 1.33 µM | > 100 µM | 2.38 µM | > 100 µM | 2.54 µM | > 100 µM | 1.88 µM | 60.2 µM | 0.405 µM | 11.1 µM
Cc1cc2c(Br)cc(Br)c(O)c2nc1C(=O)c1ccccc1 |  | > 100 µM |  | 8.11 µM |  | > 31.6 µM |  | 97.2 µM |  | > 100 µM |  | > 45.5 µM |  | > 100 µM |  | > 68.2 µM |  | > 100 µM |  | 97 µM
Cc1cc(Nc2nc(SCc3ccc(C(=O)Nc4ccc(F)cc4N)cc3)nn3cccc23)n[nH]1 | 0.508 µM | 13.5 µM | 0.268 µM | 0.785 µM | 0.556 µM | > 100 µM | 0.617 µM | 6.01 µM | 0.296 µM | 7 µM | 0.424 µM | > 100 µM | 0.514 µM | 3.72 µM | 0.677 µM | 11.5 µM | 0.558 µM | 62 µM | 0.282 µM | 17.4 µM
CCC1=C[C@@H]2CN(C1)Cc1c([nH]c3ccccc13)[C@@](C(=O)OC)(c1cc3c(cc1OC)N(C)[C@H]1[C@@](O)(C(=O)OC)[C@H](OC(C)=O)[C@]4(CC)[C@@H]5C[C@@H]5CN5CC[C@]31[C@@H]54)C2 | < 0.005 µM |  | < 0.005 µM |  | < 0.005 µM | 6.94 µM and 16.7 µM | < 0.005 µM | 2.07 µM |  | 3.46 µM and 17.5 µM | 0.0162 µM and 0.0881 µM | 6.21 µM and 16 µM | < 0.005 µM | 0.656 µM | < 0.005 µM and 0.0211 µM |  |  | 6.87 µM and 14.5 µM | 0.0342 µM | 2.91 µM
CCCCCCCCCCCC[n+]1ccccc1 (tested in a mixture with another compound) | 1.34 µM | 4.78 µM | 0.253 µM | 1.04 µM | 1.15 µM | 3.59 µM | 1.76 µM | 5.52 µM | 0.268 µM | 1.06 µM | 3.8 µM | 19.3 µM | 0.23 µM | 1.52 µM | 0.646 µM | 2.12 µM | 0.519 µM | 2.28 µM | 1.43 µM | 3.44 µM
O=C(/C=C/c1ccccc1)CC(c1ccccc1)N1CCOCC1 (stereo not given) | 3.12 µM | 9.87 µM | 3.68 µM | 18.1 µM | 3.25 µM | 11.9 µM | 26.5 µM | 66.9 µM | 1.86 µM | 3.62 µM | 1.96 µM | 5.52 µM | 1.98 µM | 5.21 µM | 1.9 µM | 3.54 µM | 2.14 µM | 5.78 µM | 2.24 µM | 5.98 µM
Cc1ncc(C(=O)Nc2ccc(CN3CCN(C)CC3)c(C(F)(F)F)c2)cc1C#Cc1cnc(NC2CC2)c2ncccc12 | 0.519 µM | 1.17 µM | 0.67 µM | 1.47 µM | 1.41 µM | 3.06 µM | 1.66 µM | 5.54 µM | 4.28 µM | 8.56 µM | 0.566 µM | 1.1 µM | 0.621 µM | 1.62 µM | 1.27 µM | 2.88 µM | 0.709 µM | 1.51 µM | 0.612 µM | 1.11 µM
NC(=O)C1(N2CCCCC2)CCN(CCCC(=O)c2ccc(F)cc2)CC1 | 1.16 µM | > 81.6 µM | 0.801 µM | 4.19 µM | 3.41 µM | > 100 µM | 0.0925 µM | > 100 µM | 0.0443 µM | 14.1 µM | 24.7 µM | > 100 µM | 0.208 µM | > 100 µM | 1.78 µM | 6.19 µM | 7.28 µM | > 100 µM | 1.42 µM | 13.6 µM
CCOC1Oc2ccccc2-c2oc(=O)c(Sc3ccc(C)cc3)cc21 (stereo not given) | 6.73 µM | 28.3 µM | 8.98 µM | 60.5 µM | 58.5 µM | > 100 µM | 49.4 µM | > 100 µM | 29.5 µM | > 100 µM | 27.6 µM | > 100 µM | 9.66 µM | 35.5 µM | 52.2 µM | > 100 µM | 26 µM | > 100 µM | 62.3 µM | > 100 µM
c1ccc2nc3c(cc4ccccn43)nc2c1 | 53.1 µM | > 100 µM | > 100 µM | > 100 µM | 18.9 µM | 74.1 µM | 43.8 µM | > 100 µM | > 100 µM | > 100 µM | 73.4 µM | > 100 µM | > 100 µM | > 100 µM | 61.8 µM | > 100 µM | 1.81 µM | 26.1 µM | 36.7 µM | > 100 µM
C=C(CN1CCc2ccccc2C1)c1ccc(C(=O)Nc2ccccc2N)cc1 | 0.72 µM | 2.03 µM | 3.18 µM | > 12.3 µM | 1 µM | 17 µM | 3.16 µM | 19.1 µM | 1.69 µM | 6.16 µM | 0.94 µM | 5.11 µM | 0.793 µM | > 12.9 µM | 0.0899 µM | 0.379 µM | 1.54 µM | 17.6 µM | 1.3 µM | 4.28 µM
OC(c1ccc(Br)cc1)(c1cccs1)C1CC1 (stereo not given) |  | 67 µM |  | 52.7 µM |  | 47.2 µM |  | 40.4 µM |  | 58.2 µM |  | 65.7 µM |  | 54.7 µM |  | 55.6 µM |  | 42.9 µM |  | 45.9 µM
COCCOCCOCc1n(Cc2ccc3ccccc3n2)c2ccccc2[n+]1Cc1ccc2ccccc2c1 | 0.47 µM | 2.52 µM | 0.187 µM | 0.476 µM | 0.468 µM | 2.52 µM | 0.376 µM | 1.56 µM | 0.277 µM | 0.977 µM | 3.48 µM | 13.6 µM | 0.185 µM | 1.33 µM | 0.468 µM | 2.04 µM | 0.351 µM | 1.66 µM | 0.338 µM | 1.4 µM
O=C1C(SCCO)=C(SCCO)C(=O)c2ccccc21 |  | 0.481 µM |  | 7.91 µM |  | 3.77 µM |  | 4.24 µM |  | 2.89 µM |  | 3.58 µM |  | 3.09 µM |  | 3.42 µM |  | 2.78 µM |  | 2.02 µM
CNC(=O)c1cc2c(Oc3ccc(NC(=O)C4(C(=O)Nc5ccc(F)cc5)CC4)cc3)ccnc2cc1OC | 2.23 µM | 8.18 µM | 2.63 µM | 6.63 µM | 2.67 µM | > 100 µM | 2.02 µM | 5.92 µM | 3.01 µM | 9.6 µM | 2.77 µM | > 100 µM | 2.6 µM | 55.9 µM | 5.61 µM | > 100 µM | 2.32 µM | 8.96 µM | 0.463 µM | 6.56 µM
CC1(C)N=C(N)N=C(N)N1c1ccc(OCC(=O)Nc2ccccc2)c(Cl)c1 | 1.19 µM | > 59.6 µM | 0.922 µM | > 100 µM | 5.77 µM | > 100 µM | > 93.9 µM | > 100 µM | 22.3 µM | > 100 µM | 72.3 µM | > 100 µM | 9.89 µM | > 100 µM | 4.99 µM | > 100 µM | 0.688 µM | > 100 µM | 2.1 µM | > 100 µM
Cn1c(/C(C#N)=C/c2ccc3ccccc3c2)cc2ccccc21 | 0.468 µM | > 100 µM | 0.21 µM | 0.699 µM | 0.357 µM | > 100 µM | 6.28 µM | > 100 µM | 0.474 µM | > 100 µM | 0.0934 µM | > 100 µM | 0.311 µM | > 100 µM | 0.324 µM | > 100 µM | 0.225 µM | > 100 µM | 0.101 µM | 0.941 µM
